Active and inactive are the calls of the source. No rule for the calls is given here.
Assay: non-covalent RecA intein splicing inhibitors, dose response, biochemical, cell-free, fluorescence, secondary screen (AID 449750)

SMILES: O=C(c1ccc2nc(Cc3cccc(Cl)c3)oc2c1)N1CCC(O)CC1
- AC50: > 38 µM (inactive)

SMILES: O=C1C(Cl)=C(N2CCCCC2)C(=O)C(Cl)=C1c1cnc(N2CCCCC2)s1
- AC50: > 38 µM (inactive)

SMILES: CCOC(=O)c1c(CC(C)C)csc1NC(=O)CCl
- AC50: 3.33 µM

SMILES: Cc1ccc(C2CC(c3cccs3)=NN2C(=O)CSC2=NCCS2)cc1 (centres undefined)
- AC50: 9.96 µM

SMILES: O=C(Oc1ccc(N(C(=O)c2ccncc2)S(=O)(=O)c2ccc(Cl)cc2)cc1)c1ccncc1
- AC50: > 38 µM (inactive)

SMILES: Cc1ccc(C)c(-c2ccc(=O)n(Cc3cccc(Br)c3)n2)c1
- AC50: 16.7 µM

SMILES: CC1(CC(=O)N/N=C/c2ccc(OCc3ccc(Cl)cc3Cl)cc2)OCCCO1
- AC50: 11.2 µM

SMILES: CCOC1=C/C(=C/c2c(N)n3oc(C)cc3nc2=O)C=CC1=O
- AC50: > 38 µM (inactive)

SMILES: COC(=O)c1cccc(-c2ccc(C(c3c(C)[nH][nH]c3=O)c3c(C)[nH][nH]c3=O)o2)c1
- AC50: 3.29 µM

SMILES: COc1cc(NC(C)CCCN)c2ncccc2c1 (centres undefined)
- AC50: 12.3 µM

SMILES: COC(=O)c1ccccc1-c1ccc(C(c2c(C)[nH][nH]c2=O)c2c(C)[nH][nH]c2=O)o1
- AC50: 3.62 µM

SMILES: S=C1Cc2ccccc2N1
- AC50: 3.46 µM

SMILES: Cc1ccc(C)c(S(=O)(=O)/N=C2\C=C(NS(=O)(=O)c3ccccc3)C(=O)c3ccccc32)c1
- AC50: 2.79 µM

SMILES: CCCc1[nH]nc2c1C(c1ccsc1)C(C#N)=C(N)O2 (centres undefined)
- AC50: > 38 µM (inactive)

SMILES: Cc1ccc2c(c1)-c1c(ssc1=S)C(C)(C)N2C(=O)CSC1=NCCS1
- AC50: 32.5 µM

SMILES: CCCCCc1cc(=O)oc2c(C(CCN3CCCC(C)C3)c3ccc(OC)cc3)c(OC)cc(OC)c12 (centres undefined)
- AC50: 10.1 µM

SMILES: CCOc1cc(C2C(C#N)=C(N)Oc3n[nH]c(CC)c32)ccc1OCCN1CCOCC1 (centres undefined)
- AC50: > 38 µM (inactive)

SMILES: COC(=O)c1c(NC(=O)/C=C/C(=O)O)sc(Cc2ccccc2)c1C
- AC50: 2.33 µM

SMILES: Cc1ccc(-n2nc(C)c3c2OC(N)=C(C#N)C3c2ccoc2)cc1 (centres undefined)
- AC50: 6.18 µM

SMILES: Cc1onc(-c2c(Cl)cccc2Cl)c1C(=O)N1C(C)CCCC1C (centres undefined)
- AC50: > 38 µM (inactive)

SMILES: Cc1sc(NC(=O)/C=C/C(=O)O)c(C(N)=O)c1-c1ccc(C(C)(C)C)cc1
- AC50: 11.9 µM

SMILES: COc1ccc(COC(=O)N/N=C(\C)CC(=O)Nc2ccc(Cl)cn2)cc1
- AC50: > 38 µM (inactive)

SMILES: CCC(=O)Nc1c(C)nn(C(=O)CC)c1C
- AC50: > 38 µM (inactive)

SMILES: O=C(c1ccc(Cl)cc1)c1c[nH]c(C(=O)C(Cl)(Cl)Cl)c1
- AC50: 16.6 µM

SMILES: CCOc1cc(/C=C(/C#N)C(=O)Nc2ccc(O)cc2)cc(Br)c1O
- AC50: > 38 µM (inactive)

SMILES: Cc1ccc(-c2[nH]nc3c2C(c2ccc(OC(=O)N4CCOCC4)cc2)C(C#N)=C(N)O3)cc1 (centres undefined)
- AC50: 21.1 µM

SMILES: C/C(CC(=O)Nc1cc(C)ccn1)=N\NC(=O)COc1cccc(C)c1
- AC50: 11.1 µM

SMILES: CC(=O)c1ccc(OC(=O)c2cccs2)cc1
- AC50: > 38 µM (inactive)

SMILES: CC(=O)c1ccc(-c2cccc(-c3nc4ccccn4c3NC3CCCCC3)c2)cc1
- AC50: 6.79 µM

SMILES: O=C(Cc1ccccc1)NC1(O)C(=O)c2ccccc2C1=O
- AC50: 7.01 µM

SMILES: CC1=NNC(=O)C1Cc1c(Cl)cccc1Cl (centres undefined)
- AC50: > 38 µM (inactive)

SMILES: Cc1[nH]n(-c2ccccc2)c(=O)c1C(C[N+](=O)[O-])c1ccc(Cl)cc1 (centres undefined)
- AC50: 8.62 µM

SMILES: N#C/C(=C\c1cccc(O)c1)c1nc2ccccc2o1
- AC50: > 38 µM (inactive)

SMILES: COc1ccc(/C=C2\SC(=S)N(CCCC(=O)Nc3ccc(O)cc3)C2=O)cc1
- AC50: > 38 µM (inactive)

SMILES: Cc1sc(NC(=O)CCl)c(C(=O)c2ccccc2)c1C
- AC50: 5.28 µM

SMILES: CCc1[nH]nc2c1C1(CCN(C(=O)c3ccccc3)CC1)C(C#N)=C(N)O2
- AC50: 25 µM

SMILES: CCOC1(OCC)C(c2ccc(Cl)cc2)C(C#N)(C#N)C1(OCC)OCC (centres undefined)
- AC50: > 38 µM (inactive)

SMILES: COc1ccc(C2=NN(c3ccccc3)C(=O)/C2=C\c2ccc(O)c(OC)c2)cc1
- AC50: 3.62 µM

SMILES: COC(=O)c1ccccc1Sc1ncnc2onc(C)c12
- AC50: > 38 µM (inactive)

SMILES: COc1cc(/C=C(\C#N)C(=O)c2c[nH]c3ccccc23)cc(OC)c1O
- AC50: > 38 µM (inactive)

SMILES: COC(=O)c1c(NC(=O)/C=C/C(=O)O)sc(C)c1-c1ccc(C(C)C)cc1
- AC50: 11.6 µM

SMILES: C/C(CC(=O)Nc1ccccc1[N+](=O)[O-])=N\NC(=O)COc1ccccc1C
- AC50: > 38 µM (inactive)

SMILES: CN(C)c1ccc(C(=O)n2nnc3ccccc32)cc1
- AC50: > 38 µM (inactive)

SMILES: Cc1[nH][nH]c(=O)c1C(c1ccc(N(C)C)c(Br)c1)c1c(C)[nH][nH]c1=O
- AC50: 38.7 µM

SMILES: COc1ccccc1-c1c(C)oc2cc(OC(=O)c3ccco3)ccc2c1=O
- AC50: > 38 µM (inactive)

SMILES: N#CC(c1ccccc1)c1cnccn1 (centres undefined)
- AC50: > 38 µM (inactive)

SMILES: CC(C)(C)c1ccc(C(=O)Cn2cnnc2C#N)cc1
- AC50: > 38 µM (inactive)

SMILES: COc1ccc(Br)cc1[C@H]1[C@H]2C=CC[C@@H](C)[C@@H]2C(=O)N1Cc1ccccc1
- AC50: 14.4 µM

SMILES: C=CS(=O)c1sc(Cl)c(N2CCOCC2)c1[N+](=O)[O-] (centres undefined)
- AC50: > 38 µM (inactive)

SMILES: Nc1ccc2nc(CCCCc3nc4ccccc4[nH]3)[nH]c2c1
- AC50: > 38 µM (inactive)

SMILES: C=CCn1c(NC(=O)c2ccc(Br)o2)c(S(=O)(=O)c2ccccc2)c2nc3ccccc3nc21
- AC50: > 38 µM (inactive)

SMILES: COC(=O)c1sc(-c2cccs2)cc1NC(=O)/C=C/C(=O)O
- AC50: 35.9 µM

SMILES: CC(C)(C)c1[nH]nc2c1C(c1ccco1)C(C#N)=C(N)O2 (centres undefined)
- AC50: 38.8 µM

SMILES: O=C(CCl)Nc1cccc(CP(=O)(c2ccccc2)c2ccccc2)c1
- AC50: 17.8 µM

SMILES: O=C1NCCCC2c3c(cc(Br)c(O)c3Br)OC12N1CCCCC1 (centres undefined)
- AC50: > 38 µM (inactive)

SMILES: O=C(CSc1c2c(nc3cc(Cl)ccc13)CCCC2)NCc1ccco1
- AC50: 26.4 µM

SMILES: CCCc1[nH][nH]c(=O)c1C(c1cccc(Cl)c1)C(C#N)C#N (centres undefined)
- AC50: 9.32 µM

SMILES: COc1ccc(NC(=S)Nc2ccc3nsnc3c2)cc1
- AC50: 25.2 µM

SMILES: CS/C(=C\[N+](=O)[O-])Nc1ccc(Cl)cc1
- AC50: > 38 µM (inactive)

SMILES: Cc1[nH][nH]c(=O)c1C(c1ccc([N+](=O)[O-])cc1)c1c(C)[nH][nH]c1=O
- AC50: 25.4 µM

SMILES: Cc1cccc(OCC(=O)Oc2ccc(Cl)cc2)c1
- AC50: > 12 µM (inactive)

SMILES: CCCc1[nH]nc2c1C(c1ccc(OC(=O)N3CCOCC3)c(OC)c1)C(C#N)=C(N)O2 (centres undefined)
- AC50: > 38 µM (inactive)

SMILES: CC1=C(C)/C(=N\OC(=O)/C=C/c2ccccc2)C=CC1=O
- AC50: > 38 µM (inactive)

SMILES: COc1ccc(OCc2cc(C(=O)NC3CCOC(C)(C)C3)no2)c2ccccc12 (centres undefined)
- AC50: 26 µM

SMILES: CC(=O)Nc1ccc(S(=O)(=O)NC2=C(N3CCN(c4ccc(F)cc4)CC3)C(=O)c3ccccc3C2=O)cc1
- AC50: 26.7 µM

SMILES: [O-][N+]1=c2ccc(Nc3ccccc3)cc2=NC12CCCCC2
- AC50: 16.7 µM

SMILES: CC1=NNC(=O)/C1=C\c1cn(-c2ccccc2)nc1-c1cccs1
- AC50: 9.64 µM

SMILES: COc1cc2c(cc1OC)C(c1cc(Br)ccc1F)N(C(=O)CCl)CC2 (centres undefined)
- AC50: 2.43 µM

SMILES: CN(C)C(=S)N=Nc1[nH]c2ccccc2c1O
- AC50: > 38 µM (inactive)

SMILES: CCN1CCN(C(c2cccnc2)c2cc(Cl)c3cccnc3c2O)CC1 (centres undefined)
- AC50: 16 µM

SMILES: COCc1[nH]nc2c1C1(CCSCC1)C(C#N)=C(N)O2
- AC50: > 38 µM (inactive)

SMILES: CSc1nc(-c2ccccc2)nn1C(=O)c1ccc(Cl)cc1
- AC50: > 38 µM (inactive)

SMILES: O=c1cc(-c2cccc3ccccc23)[nH][nH]1
- AC50: 12.1 µM

SMILES: COc1cc(C2C(C#N)=C(N)Oc3c2c(-c2ccccc2)nn3-c2ccccc2)cc(OC)c1OC (centres undefined)
- AC50: 29.9 µM

SMILES: COCCOC(=O)C1=C(C)N=C2SCCC(=O)N2C1c1ccc(OC(=O)c2ccco2)cc1 (centres undefined)
- AC50: > 38 µM (inactive)

SMILES: Cc1cc2nc(Sc3c([N+](=O)[O-])nc(C)n3Cc3ccccc3)[nH]c2cc1C
- AC50: > 38 µM (inactive)

SMILES: O=C(NC1(O)C(=O)c2ccccc2C1=O)c1ccccc1
- AC50: 9.46 µM

SMILES: Cc1cc2c3c(c1)C(C)CC(C)(C)N3C(=O)C2=C(C#N)C#N (centres undefined)
- AC50: > 38 µM (inactive)

SMILES: CCOc1ccc2c(c1)-c1c(ssc1=S)C(C)(C)N2
- AC50: > 38 µM (inactive)

SMILES: Cc1[nH]n(-c2ccccc2)c(=O)c1C(c1cccc([N+](=O)[O-])c1O)c1c(C)[nH]n(-c2ccccc2)c1=O
- AC50: 1.72 µM

SMILES: O=C1C(Cl)=C(N2CCCCC2)C(=O)N1c1ccccc1
- AC50: > 12 µM (inactive)

SMILES: Cc1ccc([N+](=O)[O-])cc1S(=O)(=O)N(C(=O)c1ccncc1)c1ccc2oc3c(c2c1)CCCC3
- AC50: > 38 µM (inactive)

SMILES: CCOC(=O)/C(C#N)=C1/SC(C)C(=O)N1c1ccc(Br)cc1 (centres undefined)
- AC50: > 38 µM (inactive)

SMILES: COC(=O)c1c(NC(=O)/C=C/C(=O)O)sc(C)c1-c1ccc(C)c(C)c1
- AC50: 26.5 µM

SMILES: COc1ccccc1C1C(C#N)=C(N)Oc2c1c(-c1ccccc1)nn2-c1ccccc1 (centres undefined)
- AC50: 11.9 µM

SMILES: COc1ccc(Nc2cnn(-c3nc4ccccc4s3)c(=O)c2Cl)cc1
- AC50: > 38 µM (inactive)

SMILES: COc1cccc(-c2[nH]nc3c2C(c2ccc(C)o2)C(C#N)=C(N)O3)c1 (centres undefined)
- AC50: 26.2 µM

SMILES: Cc1cccc(Cn2nnc3c2C(=O)c2ccccc2C3=O)c1
- AC50: 28.7 µM

SMILES: CCCc1[nH]nc2c1C(c1ccc(OC)c(CSC3=NCCS3)c1)C(C#N)=C(N)O2 (centres undefined)
- AC50: 18.5 µM

SMILES: CNC(=O)/C(C#N)=C/c1c(N(Cc2ccccc2)Cc2ccccc2)nc2c(C)cccn2c1=O
- AC50: 13 µM

SMILES: O=C(Cc1cc(=O)[nH][nH]1)N/N=C/C=C/c1ccccc1
- AC50: 20.8 µM

SMILES: Cc1[nH][nH]c(=O)c1C(c1cc2c(cc1Br)OCO2)c1c(C)[nH][nH]c1=O
- AC50: 20.2 µM

SMILES: O=C(CCl)N1c2ccccc2CCc2ccccc21
- AC50: 3.76 µM

SMILES: Cc1nn(-c2ccccc2)c2c1C(c1cccs1)C(C#N)=C(N)O2 (centres undefined)
- AC50: 18.3 µM

SMILES: O=C(Nc1n[nH]c(C(F)(F)F)n1)c1cccs1
- AC50: > 38 µM (inactive)

SMILES: Cc1nnc(N/N=C/c2ccccc2O)n1N
- AC50: 21.8 µM

SMILES: O=C(O)c1ccc(-n2c(=O)c3ccccc3c3ccccc3c2=O)cc1
- AC50: > 38 µM (inactive)

SMILES: CC(=O)c1cccc2c(O)c(C3=Nc4ccccc4C3=O)[nH]c12
- AC50: 34.6 µM

SMILES: O=S(=O)(CCSc1ccccn1)c1nc2ccccc2s1
- AC50: > 38 µM (inactive)

SMILES: CN1c2ccccc2C(C)(C)C12C=Nc1c(ccc3ccccc13)O2 (centres undefined)
- AC50: 21.2 µM

SMILES: CC(C)(C)c1cc[n+](C2=C([O-])c3ccccc3C(=O)/C2=N\S(=O)(=O)c2cccs2)cc1
- AC50: 8.96 µM

SMILES: COc1ccccc1NC1=C(N2CCCCC2)C(=O)c2ccccc2C1=O
- AC50: 8.09 µM

SMILES: N#Cc1c(-c2ccccc2)nc(SCC(=O)N2c3ccccc3Sc3ccccc32)[nH]c1=O
- AC50: 8.24 µM

SMILES: Cc1cc(C(=O)CN2C(=O)c3ccccc3C2=O)c(C)n1C1CC1
- AC50: > 38 µM (inactive)

Reference: PubChem BioAssay AID449750 (Broad Institute, 2010)
